This assay has as its system CD-1 mice. Description: Model of scratching induced by histamine in CD-1 mice (assessment of H4 antagonism). Type of assay: in vivo. The following applies: 30 mg/kg oral gavage 30 min before i.d. histamine; bouts counted for 20 minutes; female CD-1 mice. On the procedure:
Assessment of H4 Antagonism—Model of Scratching Induced by Histamine in CD-1 mice.
Female CD-1 mice (Charles River, Hollister, Calif.), approximately 10 weeks old were housed under controlled conditions (12 h light: 12 h dark, 21° C.) and allowed ad libitum access to food (Purina LabDiet 5P14) and water. Animals were deprived of access to food and water for 1 hour during the experimental itch protocol. All studies were performed under the guidelines of the Institutional Animal Care and Use Committee of Kalypsys, Inc.
At least 24 hours prior to study initiation, the hair on the rostral dorsum of the animal was clipped to clear a location for intradermal (i.d.) injection of pruritogen (histamine, dissolved in Dulbecco's PBS [pH 7.4] at a concentration of 10 μmol per 20 μL). Animals were dosed by oral gavage with vehicle (9/0.5/0.5/90 PEG-400/Tween-80/PVP-K30/1% carboxymethylcellulose in water) or test compounds (formulated as suspensions in vehicle) at 30 mg/kg in 200 μL by means of a 20 gauge 1.5″ feeding needle affixed to a 1 mL syringe. There were 8 mice per study group. Thirty minutes after oral dosing, animals were injected i.d. with 20 μL of histamine. Immediately afterward animals were placed into individual sections of a standard acrylic cage for observation, which was recorded digitally for a 20 minute period by video cameras (Panasonic SDR-S70/PC) for later review.
Quantitation of induced itch was measured as described previously (Bell, J. K. et al., British Journal of Pharmacology, 142:374-380, 2004) by counting the number of scratching bouts per animal in the 20 minute period after i.d. injection. A scratching bout was defined as three rapid scratch movements of the hind paw in the area of the injection site. Activity with the fore paws was deemed to be grooming and not scratching, and thus was not counted. All data were analyzed using GraphPad Prism (San Diego, Calif.) software, and reported as mean percentage reduction in scratching bouts versus vehicle control. The significance of antagonist effect on agonist-induced itching was analyzed using the nonparametric Mann-Whitney test with P values <0.05 being designated as statistically significant.
Data reported as NT refers to the example having been not tested. It is expected that these compounds when tested will be active and will have utility similar to those that have been tested. In Table 2 below, entries with superscript “1” are statistically significant according to the criteria outlined in the protocol above. Entries with superscript “2” are examples that have been tested on two separate days and the results reported below are the mean of the two experiments

Take `CN1CCN(c2nc3ccc(Cl)cc3n3cnnc23)CC1` [Example 55, 8-chloro-4-(4-methylpiperazin-1-yl)-[1,2,4]triazolo[4,3-a]quinoxaline]: the “Scratching Bouts (% change from vehicle control)” value is recorded as −65^1,2%. Regarding `Clc1ccc2nc(N3CCNCC3)c3nncn3c2c1` [Example 57, 8-chloro-4-(piperazin-1-yl)-[1,2,4]triazolo[4,3-a]quinoxaline], the “Scratching Bouts (% change from vehicle control)” value was −66^1%.

Source of the values: US20120065187A1 (ALCON RESEARCH, LTD, priority 2008, published 2012).
